Data taken from patent publication US20130157954A1, “METHODS FOR TREATMENT OR PROPHYLAXIS OF KIDNEY OR LIVER DYSFUNCTION” (NPS PHARMACEUTICALS, INC., priority 2010, published 2013).

Test: Example 1: liver biomarkers (total bilirubin, ALT, AST, ALP) in short bowel syndrome patients, every four weeks for 24 weeks; also sorted by >5% change from baseline
Assay type: in vivo, Human
Parameters: AST (SGOT) Change from Baseline Median / ALT (SGPT) Median / TOTAL BILIRUBIN Median / TOTAL BILIRUBIN Change from Baseline Median / ALT (SGPT) Change from Baseline Median / AST (SGOT) Median: unit not given here
Settings: for ALKALINE PHOSPHATASE change from baseline −5% <= and <=5%, percent of patients / ALT (SGPT) change from baseline <−5%, number of patients / ALT (SGPT) change from baseline <−5%, percent of patients / ALT (SGPT) change from baseline >5%, number of patients / ALT (SGPT) change from baseline >5%, percent of patients / ALT (SGPT) change from baseline −5% <= and <=5%, number of patients / ALT (SGPT) change from baseline −5% <= and <=5%, percent of patients / AST (SGOT) change from baseline <−5%, number of patients / AST (SGOT) change from baseline <−5%, percent of patients / AST (SGOT) change from baseline >5%, number of patients / AST (SGOT) change from baseline >5%, percent of patients / AST (SGOT) change from baseline −5% <= and <=5%, number of patients / AST (SGOT) change from baseline −5% <= and <=5%, percent of patients / TOTAL BILIRUBIN change from baseline <−5%, number of patients / TOTAL BILIRUBIN change from baseline <−5%, percent of patients / TOTAL BILIRUBIN change from baseline >5%, number of patients / TOTAL BILIRUBIN change from baseline >5%, percent of patients / TOTAL BILIRUBIN change from baseline −5% <= and <=5%, number of patients / TOTAL BILIRUBIN change from baseline −5% <= and <=5%, percent of patients / ALKALINE PHOSPHATASE change from baseline <−5%, number of patients / ALKALINE PHOSPHATASE change from baseline <−5%, percent of patients / ALKALINE PHOSPHATASE change from baseline >5%, number of patients / ALKALINE PHOSPHATASE change from baseline >5%, percent of patients / ALKALINE PHOSPHATASE change from baseline −5% <= and <=5%, number of patients: 0.05 mg/kg/day
Experimental: Human patients with short bowel syndrome were divided into three groups: a control group (16 total individuals) to receive placebo, an experimental group (35 total individuals) to receive teduglutide at 0.05 mg/kg/day throughout the study, and an experimental group (32 total individuals) to receive teduglutide at 0.1 mg/kg/day throughout the study. Patients were treated by subcutaneous injection of placebo or the appropriate dose of teduglutide. As individuals with short bowel syndrome are likely to experience associated liver and kidney disease, known biomarkers of liver and kidney function were monitored every four weeks, for 24 weeks. The liver biomarkers tested included total bilirubin, ALT and AST and ALP. The kidney biomarkers tested included urea nitrogen, creatinine and GFR. Before administration of placebo or teduglutide, diagnostic biomarker levels were tested to establish a baseline for each individual.
To visualize the effect of GLP-2 on the levels of the diagnostic biomarkers, the average change from baseline was calculated for the placebo and teduglutide treated groups for each visit after a baseline was established. The average change from baseline of each group is depicted in FIGS. 1-7. The numerical figures for each diagnostic biomarker at each time point are depicted in Table 1.
The efficacy of teduglutide in treating liver dysfunction was further tested by sorting the data into two groups: individuals with abnormal baseline values of liver diagnostic biomarkers; and individuals with normal baseline values of liver diagnostic biomarkers. The mean diagnostic biomarker change from baseline for these two groups is shown for ALT (FIGS. 5 and 6) and AST (FIGS. 7 and 8). […] These changes were significant when compared to baseline levels for the group, and when compared to placebo (see FIGS. 5 and 7).
The raw data for this sorting is reproduced in Table 2 below.

Q: Which results are given for CC[C@H](C)[C@H](NC(=O)[C@H](Cc1ccccc1)NC(=O)[C@H](CC(=O)O)NC(=O)[C@H](CCCNC(=N)N)NC(=O)[C@H](C)NC(=O)[C@H](C)NC(=O)[C@H](CC(C)C)NC(=O)[C@H](CC(N)=O)NC(=O)[C@H](CC(=O)O)NC(=O)[C@H](CC(C)C)NC(=O)[C@@H](NC(=O)[C@@H](NC(=O)[C@H](CC(N)=O)NC(=O)[C@H](CCSC)NC(=O)[C@H](CCC(=O)O)NC(=O)[C@H](CC(=O)O)NC(=O)[C@H](CO)NC(=O)[C@H](Cc1ccccc1)NC(=O)[C@H](CO)NC(=O)CNC(=O)[C@H](CC(=O)O)NC(=O)CNC(=O)[C@@H](N)Cc1c[nH]cn1)[C@@H](C)O)[C@@H](C)CC)C(=O)N[C@@H](CC(N)=O)C(=O)N[C@@H](Cc1c[nH]c2ccccc12)C(=O)N[C@@H](CC(C)C)C(=O)N[C@H](C(=O)N[C@@H](CCC(N)=O)C(=O)N[C@H](C(=O)N[C@@H](CCCCN)C(=O)N[C@H](C(=O)N[C@H](C(=O)N[C@@H](CC(=O)O)C(=O)O)[C@@H](C)O)[C@@H](C)CC)[C@@H](C)O)[C@@H](C)CC [teduglutide]?
A: ALKALINE PHOSPHATASE change from baseline −5% <= and <=5%, percent of patients (week 12): (5.7%); ALT (SGPT) change from baseline <−5%, number of patients (week 12): 19; ALT (SGPT) change from baseline <−5%, percent of patients (week 12): (54.3%); ALT (SGPT) change from baseline >5%, number of patients (week 12): 4; ALT (SGPT) change from baseline >5%, percent of patients (week 12): (11.4%); ALT (SGPT) change from baseline −5% <= and <=5%, number of patients (week 12): 4; ALT (SGPT) change from baseline −5% <= and <=5%, percent of patients (week 12): (11.4%); AST (SGOT) change from baseline <−5%, number of patients (week 12): 19; AST (SGOT) change from baseline <−5%, percent of patients (week 12): (54.3%); AST (SGOT) change from baseline >5%, number of patients (week 12): 5; AST (SGOT) change from baseline >5%, percent of patients (week 12): (14.3%); AST (SGOT) change from baseline −5% <= and <=5%, number of patients (week 12): 3; AST (SGOT) change from baseline −5% <= and <=5%, percent of patients (week 12): (8.6%); TOTAL BILIRUBIN change from baseline <−5%, number of patients (week 12): 14; TOTAL BILIRUBIN change from baseline <−5%, percent of patients (week 12): (40.0%); TOTAL BILIRUBIN change from baseline >5%, number of patients (week 12): 6; TOTAL BILIRUBIN change from baseline >5%, percent of patients (week 12): (17.1%); TOTAL BILIRUBIN change from baseline −5% <= and <=5%, number of patients (week 12): 4; TOTAL BILIRUBIN change from baseline −5% <= and <=5%, percent of patients (week 12): (11.4%); ALKALINE PHOSPHATASE change from baseline <−5%, number of patients (week 16): 20; ALKALINE PHOSPHATASE change from baseline <−5%, percent of patients (week 16): (57.1%); ALKALINE PHOSPHATASE change from baseline >5%, number of patients (week 16): 6; ALKALINE PHOSPHATASE change from baseline >5%, percent of patients (week 16): (17.1%); ALKALINE PHOSPHATASE change from baseline −5% <= and <=5%, number of patients (week 16): 2; ALKALINE PHOSPHATASE change from baseline −5% <= and <=5%, percent of patients (week 16): (5.7%); ALT (SGPT) change from baseline <−5%, number of patients (week 16): 16; ALT (SGPT) change from baseline <−5%, percent of patients (week 16): (45.7%); ALT (SGPT) change from baseline >5%, number of patients (week 16): 12; ALT (SGPT) change from baseline >5%, percent of patients (week 16): (34.3%); ALT (SGPT) change from baseline −5% <= and <=5%, number of patients (week 16): 0; ALT (SGPT) change from baseline −5% <= and <=5%, percent of patients (week 16): (0.0%); AST (SGOT) change from baseline <−5%, number of patients (week 16): 14; AST (SGOT) change from baseline <−5%, percent of patients (week 16): (40.0%); AST (SGOT) change from baseline >5%, number of patients (week 16): 8; AST (SGOT) change from baseline >5%, percent of patients (week 16): (22.9%); AST (SGOT) change from baseline −5% <= and <=5%, number of patients (week 16): 6; AST (SGOT) change from baseline −5% <= and <=5%, percent of patients (week 16): (17.1%); TOTAL BILIRUBIN change from baseline <−5%, number of patients (week 16): 14; TOTAL BILIRUBIN change from baseline <−5%, percent of patients (week 16): (40.0%); TOTAL BILIRUBIN change from baseline >5%, number of patients (week 16): 9; TOTAL BILIRUBIN change from baseline >5%, percent of patients (week 16): (25.7%); TOTAL BILIRUBIN change from baseline −5% <= and <=5%, number of patients (week 16): 3; TOTAL BILIRUBIN change from baseline −5% <= and <=5%, percent of patients (week 16): (8.6%); ALKALINE PHOSPHATASE change from baseline <−5%, number of patients (week 20): 22; ALKALINE PHOSPHATASE change from baseline <−5%, percent of patients (week 20): (62.9%); ALKALINE PHOSPHATASE change from baseline >5%, number of patients (week 20): 4; ALKALINE PHOSPHATASE change from baseline >5%, percent of patients (week 20): (11.4%); ALKALINE PHOSPHATASE change from baseline −5% <= and <=5%, number of patients (week 20): 1; ALKALINE PHOSPHATASE change from baseline −5% <= and <=5%, percent of patients (week 20): (2.9%); ALT (SGPT) change from baseline <−5%, number of patients (week 20): 17; ALT (SGPT) change from baseline <−5%, percent of patients (week 20): (48.6%); ALT (SGPT) change from baseline >5%, number of patients (week 20): 9; ALT (SGPT) change from baseline >5%, percent of patients (week 20): (25.7%); ALT (SGPT) change from baseline −5% <= and <=5%, number of patients (week 20): 1; ALT (SGPT) change from baseline −5% <= and <=5%, percent of patients (week 20): (2.9%); AST (SGOT) change from baseline <−5%, number of patients (week 20): 17; AST (SGOT) change from baseline <−5%, percent of patients (week 20): (48.6%); AST (SGOT) change from baseline >5%, number of patients (week 20): 6; AST (SGOT) change from baseline >5%, percent of patients (week 20): (17.1%); AST (SGOT) change from baseline −5% <= and <=5%, number of patients (week 20): 4; AST (SGOT) change from baseline −5% <= and <=5%, percent of patients (week 20): (11.4%); TOTAL BILIRUBIN change from baseline <−5%, number of patients (week 20): 12; TOTAL BILIRUBIN change from baseline <−5%, percent of patients (week 20): (34.3%); TOTAL BILIRUBIN change from baseline >5%, number of patients (week 20): 7; TOTAL BILIRUBIN change from baseline >5%, percent of patients (week 20): (20.0%); TOTAL BILIRUBIN change from baseline −5% <= and <=5%, number of patients (week 20): 6; TOTAL BILIRUBIN change from baseline −5% <= and <=5%, percent of patients (week 20): (17.1%); ALKALINE PHOSPHATASE change from baseline <−5%, number of patients (week 24): 21; ALKALINE PHOSPHATASE change from baseline <−5%, percent of patients (week 24): (60.0%); ALKALINE PHOSPHATASE change from baseline >5%, number of patients (week 24): 4; ALKALINE PHOSPHATASE change from baseline >5%, percent of patients (week 24): (11.4%); ALKALINE PHOSPHATASE change from baseline −5% <= and <=5%, number of patients (week 24): 0; ALKALINE PHOSPHATASE change from baseline −5% <= and <=5%, percent of patients (week 24): (0.0%); ALT (SGPT) change from baseline <−5%, number of patients (week 24): 18; ALT (SGPT) change from baseline <−5%, percent of patients (week 24): (51.4%); ALT (SGPT) change from baseline >5%, number of patients (week 24): 4; ALT (SGPT) change from baseline >5%, percent of patients (week 24): (11.4%); ALT (SGPT) change from baseline −5% <= and <=5%, number of patients (week 24): 4; ALT (SGPT) change from baseline −5% <= and <=5%, percent of patients (week 24): (11.4%); AST (SGOT) change from baseline <−5%, number of patients (week 24): 17; AST (SGOT) change from baseline <−5%, percent of patients (week 24): (48.6%); AST (SGOT) change from baseline >5%, number of patients (week 24): 6; AST (SGOT) change from baseline >5%, percent of patients (week 24): (17.1%); AST (SGOT) change from baseline −5% <= and <=5%, number of patients (week 24): 3; AST (SGOT) change from baseline −5% <= and <=5%, percent of patients (week 24): (8.6%); TOTAL BILIRUBIN change from baseline <−5%, number of patients (week 24): 8; TOTAL BILIRUBIN change from baseline <−5%, percent of patients (week 24): (22.9%); TOTAL BILIRUBIN change from baseline >5%, number of patients (week 24): 10; TOTAL BILIRUBIN change from baseline >5%, percent of patients (week 24): (28.6%); TOTAL BILIRUBIN change from baseline −5% <= and <=5%, number of patients (week 24): 4; TOTAL BILIRUBIN change from baseline −5% <= and <=5%, percent of patients (week 24): (11.4%); ALT (SGPT) Change from Baseline Median (0.10 mg/kg/day, DW4): −6.5; ALT (SGPT) Median (0.10 mg/kg/day, DW4): 30.0
